Laboratory results as given in the supplement of paper PMC5908809.

Legend:
[1] = test system: normal NK cells expanded with K562-aAPC; assay: percent inhibition of viability; higher = more inhibition; conditions: 72 h, IL-2 2.5 ng/mL
Procedure: (§1)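 Drug sensitivity and resistance testing on K562-aAPC-expanded normal NK cells: 5 concentrations (10-fold steps over a 10,000-fold range), 72 h at 37 °C, viability by CellTiter-Glo normalised to DMSO and benzethonium chloride controls; DSS from the fitted curve.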

DERL-7 (IL-2 2.5 ng/mL) [2] = assay: as above; conditions: 72 h
IMC-1 (IL-2 20 ng/mL) [3] = assay: as above; conditions: 72 h
KAI3 (IL-2 2.5 ng/mL) [4] = assay: as above; conditions: 72 h
KHYG-1 (IL-2 2.5 ng/mL) [5] = assay: as above; conditions: 72 h
NK-92 (IL-2 2.5 ng/mL) [6] = assay: as above; conditions: 72 h
NK-YS (IL-2 2.5 ng/mL) [7] = assay: as above; conditions: 72 h
NKL (IL-2 2.5 ng/mL) [8] = assay: as above; conditions: 72 h
SNK-6 (IL-2 2.5 ng/mL) [9] = assay: as above; conditions: 72 h
YT (IL-2 2.5 ng/mL) [10] = assay: as above; conditions: 72 h
[11] = test system: normal primary NK cells, pool 1 (3 donors) (IL-2 2.5 ng/mL); assay: as above; conditions: 72 h
[12] = test system: normal primary NK cells, pool 1 (3 donors), resting (IL-2 0 ng/mL); assay: as above; conditions: 72 h
[13] = test system: normal primary NK cells, pool 2 (3 donors) (IL-2 2.5 ng/mL); assay: as above; conditions: 72 h
[14] = test system: normal primary NK cells, pool 3 (3 donors) (IL-2 2.5 ng/mL); assay: as above; conditions: 72 h
[15] = test system: normal NK cells expanded with K562-aAPC; assay: drug sensitivity score (DSS) (DSS units); higher = more sensitive; extreme values may be limits of the assay; conditions: 72 h; IL-2 2.5 ng/mL
Procedure: as §1

DERL-7 (IL-2 2.5 ng/mL) [16] = assay: as above; conditions: 72 h
IMC-1 (IL-2 20 ng/mL) [17] = assay: as above; conditions: 72 h
KAI3 (IL-2 2.5 ng/mL) [18] = assay: as above; conditions: 72 h
KHYG-1 (IL-2 2.5 ng/mL) [19] = assay: as above; conditions: 72 h
NK-92 (IL-2 2.5 ng/mL) [20] = assay: as above; conditions: 72 h
NK-YS (IL-2 2.5 ng/mL) [21] = assay: as above; conditions: 72 h
NKL (IL-2 2.5 ng/mL) [22] = assay: as above; conditions: 72 h
SNK-6 (IL-2 2.5 ng/mL) [23] = assay: as above; conditions: 72 h
YT (IL-2 2.5 ng/mL) [24] = assay: as above; conditions: 72 h
[25] = test system: normal primary NK cells, pool 1 (3 donors) (IL-2 2.5 ng/mL); assay: as above; conditions: 72 h
[26] = test system: normal primary NK cells, pool 1 (3 donors), resting (IL-2 0 ng/mL); assay: as above; conditions: 72 h
[27] = test system: normal primary NK cells, pool 2 (3 donors) (IL-2 2.5 ng/mL); assay: as above; conditions: 72 h
[28] = test system: normal primary NK cells, pool 3 (3 donors) (IL-2 2.5 ng/mL); assay: as above; conditions: 72 h

CC(C)C[C@@H](C(=O)N[C@H](C(=O)OC1CCCC1)c1ccccc1)[C@H](O)C(=O)NO [Tosedostat] (max concentration tested 10000 nM)
percent inhibition of viability [%]
Conditions | 1 nM | 10 nM | 100 nM | 1000 nM | 10000 nM
DERL-7 (IL-2 2.5 ng/mL) [2] | 0.91 | 28.1 | 38.8 | 57.2 | 60.4
IMC-1 (IL-2 20 ng/mL) [3] | 1.56 | 3.44 | 2.86 | -8.8 | 34.8
KAI3 (IL-2 2.5 ng/mL) [4] | -9.18 | -2.01 | 1.91 | 5.58 | 19.7
KHYG-1 (IL-2 2.5 ng/mL) [5] | -2.21 | -0.34 | 2.84 | 38.9 | 56
NK-92 (IL-2 2.5 ng/mL) [6] | -7.95 | -5.73 | 1.42 | 28.5 | 39.5
NK-YS (IL-2 2.5 ng/mL) [7] | 1.05 | 7.39 | 20.1 | 32.9 | 43.8
NKL (IL-2 2.5 ng/mL) [8] | 2.1 | 17 | 15 | 11.9 | 77.3
SNK-6 (IL-2 2.5 ng/mL) [9] | 15.8 | -24.2 | -35 | -26.7 | -18.3
YT (IL-2 2.5 ng/mL) [10] | -4.4 | 5.94 | -1.61 | 16.7 | 64.4
[1] | -1.88 | 6.85 | 7.57 | 15.4 | 28.1
[11] | 0.7 | -2.5 | 14.2 | 32.4 | 71.7
[12] | -9.12 | -11.9 | 19.5 | 68.8 | 83
[13] | -1.97 | -1.61 | 3.93 | 27.9 | 53.1
[14] | -8.47 | -19.6 | -9.22 | 2.66 | 28.9

Conditions | drug sensitivity score
DERL-7 (IL-2 2.5 ng/mL) [16] | 18
IMC-1 (IL-2 20 ng/mL) [17] | 1.21
KAI3 (IL-2 2.5 ng/mL) [18] | 1.15
KHYG-1 (IL-2 2.5 ng/mL) [19] | 7.83
NK-92 (IL-2 2.5 ng/mL) [20] | 5.36
NK-YS (IL-2 2.5 ng/mL) [21] | 8.33
NKL (IL-2 2.5 ng/mL) [22] | 6.28
SNK-6 (IL-2 2.5 ng/mL) [23] | 0
YT (IL-2 2.5 ng/mL) [24] | 6.11
[15] | 2.81
[25] | 8
[26] | 15.1
[27] | 6.04
[28] | 1.63

COc1cc2ncnc(Nc3ccc(F)c(Cl)c3)c2cc1OCCCN1CCOCC1 [Gefitinib] (max concentration tested 10000 nM)
percent inhibition of viability [%]
Conditions | 1 nM | 10 nM | 100 nM | 1000 nM | 10000 nM
DERL-7 (IL-2 2.5 ng/mL) [2] | 3.62 | -2.09 | 5.77 | 1.47 | 70.4
IMC-1 (IL-2 20 ng/mL) [3] | -4.89 | 1.4 | 2.3 | 2.27 | 13.5
KAI3 (IL-2 2.5 ng/mL) [4] | 0.49 | -0.54 | -4.64 | 11.8 | 56.9
KHYG-1 (IL-2 2.5 ng/mL) [5] | -2.54 | 5.78 | 8.11 | 9.75 | 89.9
NK-92 (IL-2 2.5 ng/mL) [6] | -2.12 | 5.54 | -3.03 | 4.12 | 64.8
NK-YS (IL-2 2.5 ng/mL) [7] | -1.51 | 1.15 | 7.36 | 7.9 | 30.8
NKL (IL-2 2.5 ng/mL) [8] | -4.33 | -6.47 | -2.03 | 12 | 62.4
SNK-6 (IL-2 2.5 ng/mL) [9] | 25.8 | 34.7 | 27.6 | 9.98 | 42.4
YT (IL-2 2.5 ng/mL) [10] | -3.09 | 5.08 | 4.23 | 5.38 | 57.6
[1] | -4.93 | -2.95 | -4.74 | 12.3 | 56.2
[11] | -0.53 | -12.4 | -3.97 | -11.3 | 26.3
[12] | -4.9 | -15.9 | -4.48 | -7.6 | 64.4
[13] | -22.1 | -19.1 | 6.35 | 2.61 | 39.1
[14] | -15.3 | -8.24 | 11.2 | -13.2 | 40.1

Conditions | drug sensitivity score
DERL-7 (IL-2 2.5 ng/mL) [16] | 4.07
IMC-1 (IL-2 20 ng/mL) [17] | 0.3
KAI3 (IL-2 2.5 ng/mL) [18] | 4.99
KHYG-1 (IL-2 2.5 ng/mL) [19] | 6.6
NK-92 (IL-2 2.5 ng/mL) [20] | 4.15
NK-YS (IL-2 2.5 ng/mL) [21] | 2.2
NKL (IL-2 2.5 ng/mL) [22] | 5.38
SNK-6 (IL-2 2.5 ng/mL) [23] | 9.38
YT (IL-2 2.5 ng/mL) [24] | 3.98
[15] | 5.01
[25] | 0.66
[26] | 3
[27] | 2.32
[28] | 1.42
